In the experiment the test system is Plasmodium falciparum Dd2 asexual blood stage parasites. In words: microbe, parasite or virus in culture. Further details: species or system Plasmodium falciparum Dd2 in human erythrocytes; single determination (one 11-point concentration-response curve). The conditions noted are these: Plasmodium falciparum, DD2, Erythrocyte, 72 h.

SMILES strings stand for the structures. Read-outs that look alike come from different tables or passages of the source.

We go through 73 compounds from publication PMC7822874, “Chemoprotective antimalarials identified through quantitative high-throughput screening of Plasmodium blood and liver stage parasites” (Scientific Reports, 2021).

What is called AC50 is the midpoint of the concentration-response curve, whichever way the signal moves. With `CC(C)(C)n1nnnc1C(c1cccnc1)N(Cc1ccccc1)Cc1ccco1` (stereo not shown) [MLS000528003-01], for the setting “read-out: AC50”, the AC50 turned out to be 5.31 µM.
For `COc1cccc(Nc2ccc3c(n2)C(C)(C(=O)N2CCCC2)CN(C)C3)c1` (stereo not shown) [NCGC00414569-01], the concentration at half-maximal activity (AC50) (read-out: AC50) was found to be 17.2 µM.
Still for that read-out and setting: then `CC1=C[C@@H](CNC(=O)COc2ccccc2)[C@H](C(C)C)C[C@H]1Cc1nnc(-c2cncn2C)o1` [NCGC00394594-01], with 13.3 µM.
On the same count and under the same terms, to `Cc1ccc(-n2ncc(C(=O)N3CCN(c4cc(Cl)ccc4C)CC3)c2C2CCN(C(=O)OC(C)(C)C)CC2)cc1` [NCGC00126953-01] belongs 8.41 µM; to `O=C(NCCC1=CCCCC1)c1ccc2c(=O)n3nc(Nc4ccccc4)sc3nc2c1` [NCGC00138829-01], 4.73 µM.
On the same count and under the same terms, to `O=C(CCC1CCCN(Cc2cccn2-c2cccnc2)C1)Nc1ccccc1F` (stereo not shown) [NCGC00427855-01] belongs 6.68 µM.
Take `CCC(=O)C1=C(c2ccc(OC)c(OC)c2)N(C(=O)CC)n2c(CC)nnc2S1` [NCGC00137256-01]: the half-maximal activity concentration (AC50) (read-out: AC50) came to 4.73 µM.
The same measure, in the same setting: to `CCC(=O)C1=C(c2cccc([N+](=O)[O-])c2)N(C(=O)CC)n2c(nnc2-c2ccccc2)S1` [NCGC00137270-01] belongs 5.31 µM.
On the same count and under the same terms, then `Cc1noc(C)c1-c1cc2cc(CN(C)C)oc2c(NCCc2ccccc2)n1` [NCGC00417471-01], with 13.7 µM; and `COc1ccccc1C1CC(c2ccccc2)=NN1C(=O)c1ccccc1` (stereo not shown) [MLS001197331-01], with 2.37 µM.
The same measure, in the same setting: to `Cc1ccccc1CN1C[C@@H]2C[C@@H](c3c[nH]nc3-c3ccccc3)N3CCC[C@@]23C1=O` [MLS000735381-01] belongs 15 µM; to `CC1CCN(CC2CCCCCN2C(=O)NCc2ccc(F)cc2)CC1` (stereo not shown) [NCGC00456722-01], 13.3 µM; to `Cc1noc(C)c1-c1cc2cc(CN(C)C)oc2c(NCCOc2ccccc2)n1` [NCGC00417493-01], 15.3 µM.
`O=C1N=C(NC2CCCC2)C2(CCN(Cc3ccccc3)C2)N1c1cc(F)cc(F)c1` (stereo not shown) [NCGC00374299-01]: under “read-out: AC50”, the AC50 worked out at 7.5 µM.
For the compound `O=C(NCc1ccccc1)c1ccccc1OC1CN(Cc2ccc(O)c(F)c2)C1` [NCGC00458090-01], under “read-out: AC50”, the AC50 was 15 µM.
The same measure, in the same setting: to `O=C1CC(c2ccccc2)N(Cc2ccncc2)CCCN([S+](=O)([O-])c2cccc(F)c2)CCN1` (stereo not shown) [NCGC00467202-01] belongs 4.73 µM.
Still for that read-out and setting: to `CCc1c(C)[nH]c2ccccc2c1=O` [MLS000030676-01] belongs 10.6 µM; to `O=C(C[C@@H]1NCCC[C@H]1O)Cn1cnc2cc(Br)c(Cl)cc2c1=O` [NCGC00181132-01], 2.37 µM; to `COc1cc(NC(=O)Cn2ncc3c(=O)oc4ccccc4c32)cc(OC)c1OC` [NCGC00108571-01], 2.66 µM.
Consider `OC(c1ccc(Cl)cc1)C(CN1CCOCC1)c1ccccc1` (stereo not shown) [MLS001173582-01], for which the AC50 (read-out: AC50) came out at 2.99 µM.
On the same count and under the same terms, then `COc1cc(F)ccc1CNCc1cccnc1N1CCOCC1` [NCGC00425822-01], with 10.6 µM.
Still for that read-out and setting: then `COc1ccc(-c2n[nH]c3ncc(-c4ccc([S+](C)(=O)[O-])cc4)nc23)c(C)c1` [NCGC00419180-01], with 15.3 µM.
Compound `O=C(c1ccco1)c1cn(CCOc2ccc(F)cc2)c2ccccc12` [NCGC00101884-01] came in with an AC50 of 6.68 µM.
With `Cc1ccccc1Nc1nc(-c2cccnc2)cs1` [MLS001206645-01], the AC50 (read-out: AC50) came out at 9.44 µM.
Consider `O=C(Nc1cccnc1)c1cn(-c2ccccc2)nc1-c1cccs1` [MLS000081870-01], for which the half-maximal activity concentration (AC50) (read-out: AC50) turned out to be 2.37 µM.
The same measure, in the same setting: then `CN(C)CCNCc1ccc(-c2ccccc2)o1` [NCGC00326685-02], with 10.6 µM.
Still for that read-out and setting: to `CCOC(=O)c1ccc2c(c1)N(CC(=O)N(C)c1ccccc1)C(=O)c1ccccc1S2` [NCGC00132027-01] belongs 10.6 µM; to `CCN1CCN(C(=O)c2c(C)nn(-c3ccc(F)cc3)c2-n2cccc2)CC1` [NCGC00125054-01], 9.44 µM; to `CCN(CC)C(=O)c1sc(NC(=O)C(C)Sc2nc(-c3ccccc3)cc(C(F)(F)F)n2)c(C(=O)OC)c1C` (stereo not shown) [NCGC00101276-01], 0.596 µM.
The same measure, in the same setting: then `Cc1ccc(C(=O)c2cc(C)sc2NC(=O)CN2CCN(C(=O)c3ccco3)CC2)cc1` [MLS000073677-01], with 7.5 µM; and `CC(C)n1cc(CN2CCCC23CCN(c2ccc(C(F)(F)F)cn2)CC3)cn1` [NCGC00442913-01], with 9.44 µM.
Consider `C=C[C@]1(C)C[C@@H](OC(=O)CSC(C)(C)CNC(=O)[C@H](N)C(C)C)[C@]2(C)[C@H](C)CC[C@]3(CCC(=O)[C@H]32)[C@@H](C)[C@@H]1O` [NCGC00167968-01], for which the half-maximal activity concentration (AC50) (read-out: AC50) was 8.41 µM.
For `CCCCC(=O)Nc1nc(C)c(-c2csc(Nc3cc(OC)ccc3OC)n2)s1` [MLS000561609-01], the AC50 (read-out: AC50) was 9.44 µM.
For the compound `Cc1ccccc1-c1nccn2c(C3CN(Cc4ccccc4O)C3)ncc12` [NCGC00414046-01], the half-maximal activity concentration (AC50) (read-out: AC50) was 5.44 µM.
For `COc1ccc(C(=O)N2CCC3(CC2)COc2ccccc2CN3)cc1` [NCGC00477552-01], the AC50 (read-out: AC50) came out at 10.6 µM.
With `COc1cccc(/C(C#N)=C/c2c(-c3ccc(Cl)cc3)nc3c(C)cccn23)c1` [MLS000326878-01], the AC50 (read-out: AC50) is 5.96 µM.
`CCCOC(=O)c1ccc(-c2c(C)noc2-c2ccc(OC)cc2O)o1` [MLS000097856-01]: the AC50 (read-out: AC50) came out at 1.88 µM.
The same measure, in the same setting: then `CCOC(=O)C1(Cc2cccc(Cl)c2)CCCNC1` (stereo not shown) [NCGC00430131-01], with 8.41 µM; and `CNC(=O)CCn1ncc2cc(OCc3ccccc3-c3ccc(OC)cc3Cl)ccc21` [NCGC00418132-01], with 16.8 µM; and `Cc1ncsc1CN1CCCN(Cc2ccncc2)C(c2ccccc2)CC(=O)NCC1` (stereo not shown) [NCGC00467186-01], with 8.41 µM.
On the same count and under the same terms, then `CC1CCN(CC2CCCCCN2C(=O)Cc2ccccc2)CC1` (stereo not shown) [NCGC00456721-01], with 9.44 µM.
Same read-out and setting: then `Cc1ccc(Oc2c(C(F)(F)F)oc3c(CN4CCC(C)CC4)c(O)ccc3c2=O)cc1` [NCGC00101480-01], with 1.68 µM; and `COc1cccc(/C=C/C(=O)Nc2ccc3nc(N4CCN(C)CC4)cc(C)c3c2)c1OC` [NCGC00104449-01], with 5.96 µM; and `COC1C(=O)N(c2cccc(F)c2)C12CCNCC2` (stereo not shown) [NCGC00463379-01], with 10.6 µM.
For the compound `Cc1nn(-c2ccc(C(C)(C)C)cc2)c(C)c1[C@@H]1C=C[C@@H](NC(=O)c2ccco2)C1` [NCGC00394638-01], under “read-out: AC50”, the AC50 amounted to 12.2 µM.
Turning to `CCOC(=O)C1CCN(C(=O)c2cc3c(n2C)CCN(Cc2ccccc2)C3)CC1` [NCGC00430564-01], the AC50 (read-out: AC50) came to 10.6 µM.
As for `Cc1cc(Nc2nc3ccccc3nc2Cl)n(-c2ccccc2C)n1` [MLS000595322-01], the concentration at half-maximal activity (AC50) (read-out: AC50) amounted to 0.841 µM.
On to `CCOC(=O)COn1c(-n2nc(C)cc2C)nc2ccccc2c1=O` [MLS001215150-01], for which the AC50 (read-out: AC50) is 9.44 µM.
For the compound `COc1ccc(-c2cn3c(n2)sc2cc(C(=O)NCCCN4CCCCC4)ccc23)cc1` [NCGC00121823-01], the AC50 (read-out: AC50) is 4.73 µM.
Consider `CN1N=C2c3ccccc3CCC2C1c1ccc(F)cc1` (stereo not shown) [MLS000861852-01], for which, where the note is “read-out: AC50”, the AC50 amounted to 5.96 µM.
The same measure, in the same setting: then `Cc1cccc(C(=O)N2CCc3cc(CNC(=O)c4ccc(Br)o4)ccc32)c1` [NCGC00137781-01], with 9.44 µM; and `CC(=O)Nc1nc2ccccc2n1Cc1ccc(Cl)cc1` [MLS000779302-01], with 8.41 µM.
On the same count and under the same terms, then `CCC(=O)O[C@]1(C(=O)CCl)[C@@H](C)C[C@H]2[C@@H]3C[C@H](F)C4=CC(=O)C=C[C@]4(C)[C@@]3(F)[C@@H](O)C[C@@]21C` [NCGC00167451-01], with 10.6 µM; and `N=c1c2c3c(sc2ncn1Nc1ccccc1)CCC3` [MLS000858994-01], with 3.35 µM; and `COc1ccc(C(O)(CCC(C)C)C(CN2CCOCC2)c2ccccc2)cc1` (stereo not shown) [MLS001198958-01], with 5.31 µM.
The compound `O=C(c1cccs1)c1cn(CCOc2ccc(Cl)cc2)c2ccccc12` [NCGC00101601-01] displayed a concentration at half-maximal activity (AC50) of 5.96 µM.
Regarding `Cc1onc(-c2ccc(Cl)cc2)c1-c1ccnn1S(=O)(=O)c1cccc(C(F)(F)F)c1` [MLS001111123-01], the half-maximal activity concentration (AC50) (read-out: AC50) was found to be 4.73 µM.
Turning to `Cc1cccc2cc(CN(Cc3ccco3)C(c3nnnn3CCc3ccccc3)C(C)C)c(O)nc12` (stereo not shown) [MLS000072528-01], where the note is “read-out: AC50”, the AC50 was determined as 10.6 µM.
The same measure, in the same setting: then `CCOC(=O)c1ccc(NC2=CC(c3ccc(F)cc3)N(c3ccc(C(=O)OCC)cc3)C2=O)cc1` (stereo not shown) [NCGC00102598-01], with 8.41 µM; and `Cc1ccc(S(=O)(=O)Nc2ccc(-c3cn4ccc(C)cc4n3)cc2)cc1` [MLS000579534-01], with 6.68 µM.
For the compound `Cc1ccc2c(n1)N(C)[C@H](CO)CCN(Cc1ccc(C(F)(F)F)cc1)C2` [NCGC00395284-01], where the note is “read-out: AC50”, the AC50 is 15.3 µM.
Still for that read-out and setting: to `CC1=C[C@@H](CN2CCOCC2)[C@H](C(C)C)C[C@H]1Cc1nnc(-c2ccc([N+](=O)[O-])cc2)o1` [NCGC00394583-01] belongs 9.44 µM; to `COCCN1C(=O)c2ccccc2C(C(=O)Nc2nc3ccccc3[nH]2)C12CCCCC2` (stereo not shown) [NCGC00423176-01], 4.73 µM.
For the compound `O=c1c([N+](=O)[O-])cccn1Cc1ccc(F)cc1Cl` [MLS000728802-01], the AC50 (read-out: AC50) came out at 4.73 µM.
Still for that read-out and setting: to `CC1=C[C@@H](CN2CCN(c3ncccn3)CC2)[C@H](C(C)C)C[C@H]1Cc1nnc(COc2ccc(F)cc2)o1` [NCGC00395820-01] belongs 0.75 µM; to `Cc1cc(C)c(CNC(=O)c2cc(-c3cccnc3)cc3c2OCCN3C(C)C)c(=O)[nH]1` [NCGC00416981-01], 19.3 µM; to `O=C(Nc1ccc2n(c1=O)C[C@H]1C[C@@H]2CN(Cc2ccc(F)cc2)C1)c1cccs1` [NCGC00395674-01], 15.3 µM.
`O=C(Nc1ccc2c(N3CCOCC3)ncnc2c1)c1cccc(Cl)c1` [NCGC00425551-01]: for the setting “read-out: AC50”, the half-maximal activity concentration (AC50) stood at 4.73 µM.
Still for that read-out and setting: then `c1cnc(N2CCOCC2)c(OC2CCNC2)n1` (stereo not shown) [NCGC00434832-01], with 7.5 µM; and `Cc1ccc2nc(-c3ccc(O)c(O)c3)cn2c1` [MLS001209043-01], with 13.3 µM.
The same measure, in the same setting: then `Cc1ccc(CSC2=Nc3ccccc3C3=NC(CC(=O)NCc4ccco4)C(=O)N23)cc1` (stereo not shown) [MLS000094891-01], with 6.68 µM; and `COc1ccc2c(c1OC)C(=O)N1N=C(c3ccc(O)cc3)CC21` (stereo not shown) [MLS000570475-01], with 16.8 µM; and `CC1CCc2cc(F)ccc2N1C(=O)CSc1nnc2c(n1)[nH]c1ccc(F)cc12` (stereo not shown) [MLS000556689-01], with 8.41 µM.
